# Tested on: WT mice
# Test: Meningeal lymphatic vessel ablation (Visudyne plus photoconversion): lymphatic morphology
# Format: in vivo, mouse
# Settings: 1 week after Visudyne i.c.m. plus transcranial photoconversion
# Procedure: Adult 2 months-old WT mice were injected (i.c.m.) with Visudyne (5 μL) followed by a transcranial photoconversion step (Vis./photo.) to ablate meningeal lymphatic vessels. Control mice were injected with Visudyne without photoconversion (Vis.). One week later, mice were injected with 5 μL of a suspension of fluorescent microspheres (1 μm in diameter) into the CSF and 15 minutes later the lymphatic vessel afferent to the deep cervical lymph node (dCLN) was imaged by in vivo stereomicroscopy. Representative images of skull cap show microspheres and lymphatic vessels stained for LYVE-1 around the confluence of sinuses (COS) and transverse sinus (TS) at the dorsal brain meninges or around the sigmoid (SS) and petrosquamosal (PSS) sinuses at the basal brain meninges (scale bars, 500 μm). […]
# Immunohistochemistry, imaging and quantifications. […]
substance,measurement,value
verteporfin [Visudyne],lymphatic vasculature lining the transverse sinus (dorsal meninges),efficient ablation
same,lymphatic vessels around the SS and PSS (basal meninges),no significant changes

# Source: patent US20230067811A1, “MODULATING LYMPHATIC VESSELS IN NEUROLOGICAL DISEASE” (University of Virginia Patent Foundation, priority 2020, published 2023)
